Source: patent US20190060325A1, “STABILIZED SOLID DOSAGE FORM” (SHIONOGI & CO., LTD., priority 2016, published 2019)

Experiment: Effect of excipients on suppression of related substance formation (compound (IV) alone or mixed with excipient, stored at 60° C. for two weeks, HPLC)
Assay type: physicochemical
Conditions: compound (IV) only; for Relative amount (%) of related substance C after storage of 60° C./2 W: 60° C. two weeks
Method: Effect of excipients on suppression of related substance formation was examined. The excipients were physically (dry) mixed or were wet-kneaded using purified water with the compound (IV) in designated ratios in Table 1. The wet-kneaded materials were dried at 60° C. with ventilation. The dried materials were subdivided in glass bottles and the bottles were capped. The capped samples were stored at 60° C. for two weeks and the effect on suppression of related substance formation was estimated by the increased amount of related substances.
The relative amounts of the related substances in a 25 mg tablet obtained in the following Examples were determined by HPLC under the following conditions.
Detector: Ultraviolet spectrophotometer (wavelength: 245 nm)
Column: Unison UK-C18, 3 μm, 4.6×100 mm (Imtakt)
Column temperature: 40° C. Solution A: 0.1% trifluoroacetic acid solution
Flow rate: About 1.0 mL/min
• Compound (IV): 9 to 10 min; • Related substance A: 20 to 21 min; • Related substance B: 21 to 22 min; • Related substance C: 22 to 23 min; • Related substance D: 28 to 29 min; • Related substance E: 36 to 37 min. Injection volume: 10 μL Analytical time: 45 min
Related substances of compound (IV) were calculated by the following equation.
As: Peak area of compound (IV) in a standard solution Ai: Peak area of individual related substance ΣAi: Sum of peak area of individual related substance

## C[C@@]1(c2cc(NC(=O)c3ccc(C#N)cn3)ccc2F)C=CSC(N)=N1 [compound (IV)]
milled, capped glass bottle, % peak area of HPLC
  Relative amount (%) of related substance C after storage of 60° C./2 W: 0.19%
milled, before storage
  Relative amount (%) of related substance C, Initial: (Initial: 0.05%)
wet-kneaded
  Relative amount (%) of related substance C after storage of 60° C./2 W: 0.16%
